Test results from PubChem BioAssay AID248 (DTP/NCI, 2004).
Toxic doses and inconclusive results are not listed.

Tested on: L1210 leukemia ip in BDF1 mice, survival T/C
Assay: NCI In Vivo Anticancer Drug Screen. Data for tumor model L1210 Leukemia (intraperitoneal) in B6D2F1 (BDF1) mice
Settings: endpoint: mean survival time, higher = longer survival
How it was run: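 Tumor cells were implanted, animals were treated, and survival was followed. The result divides the treated measurement by the vehicle-control measurement.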

[1] = dose: 100.0 mg/kg/injection, schedule: Q01DX001 (ip), vehicle: Klucel (hydroxypropylcellulose) (HPC)
[2] = dose: 200.0 mg/kg/injection, schedule: Q01DX001 (ip), vehicle: Klucel (hydroxypropylcellulose) (HPC)
[3] = dose: 100.0 mg/kg/injection, schedule: Q01DX001 (ip), vehicle: carboxymethylcellulose (CMC)
[4] = dose: 200.0 mg/kg/injection, schedule: Q01DX001 (ip), vehicle: carboxymethylcellulose (CMC)
[5] = dose: 400.0 mg/kg/injection, schedule: Q01DX001 (ip), vehicle: carboxymethylcellulose (CMC)
[6] = dose: 100.0 mg/kg/injection, schedule: Q04DX003 (ip), vehicle: Klucel (hydroxypropylcellulose) (HPC)

For `CCCCSc1ccc2c(cc1=O)C(N)CCc1cc(OC)c(OC)c(OC)c1-2` (stereo not given), the T/C (dose: 12.5 mg/kg/injection, schedule: Q04DX002 (ip), vehicle: saline) was 104 % of control, the T/C (dose: 25.0 mg/kg/injection, schedule: Q04DX002 (ip), vehicle: saline) was 88 % of control and the T/C (dose: 50.0 mg/kg/injection, schedule: Q04DX002 (ip), vehicle: saline) was 95 % of control.

`Cc1cc(C)c(S(=O)(=O)N=[N+]=[N-])c(C)c1` was tested, and the T/C (dose: 100.0 mg/kg/injection, schedule: Q01DX001 (ip), vehicle: saline) was 101 % of control, the T/C (dose: 200.0 mg/kg/injection, schedule: Q01DX001 (ip), vehicle: saline) was 103 % of control and the T/C (dose: 400.0 mg/kg/injection, schedule: Q01DX001 (ip), vehicle: saline) was 97 % of control.

In the case of `NC(=S)Nc1ccncc1`, the T/C (dose: 100.0 mg/kg/injection, schedule: Q04DX002 (ip), vehicle: Klucel (hydroxypropylcellulose) (HPC)) is reported as 92 % of control, the T/C (dose: 200.0 mg/kg/injection, schedule: Q04DX002 (ip), vehicle: Klucel (hydroxypropylcellulose) (HPC)) is reported as 106 % of control and the T/C (dose: 400.0 mg/kg/injection, schedule: Q04DX002 (ip), vehicle: Klucel (hydroxypropylcellulose) (HPC)) is reported as 95 % of control.

With `N=C(N)CSSCC(=N)N` the T/C (dose: 12.5 mg/kg/injection, schedule: Q04DX003 (ip), vehicle: carboxymethylcellulose (CMC)) was 92 % of control, the T/C (dose: 25.0 mg/kg/injection, schedule: Q04DX003 (ip), vehicle: carboxymethylcellulose (CMC)) was 98 % of control and the T/C (dose: 50.0 mg/kg/injection, schedule: Q04DX003 (ip), vehicle: carboxymethylcellulose (CMC)) was 98 % of control.

For `O=C(OC1CCC2CC21)c1ccc([N+](=O)[O-])cc1[N+](=O)[O-]` (stereo not given), the T/C [1] was 98 % of control, the T/C [2] was 95 % of control and the T/C (dose: 400.0 mg/kg/injection, schedule: Q01DX001 (ip), vehicle: Klucel (hydroxypropylcellulose) (HPC)) was 106 % of control.

For `Nc1ncnc(N)c1NC(=O)c1ccc(OCCCOc2ccccc2)c(Cl)c1`, the T/C [3] was 96 % of control, the T/C [4] was 101 % of control and the T/C [5] was 96 % of control.

In the case of `CC(=O)OC1CCCCC1NC(=O)N(CCCl)N=O` (stereo not given), the T/C (dose: 27.0 mg/kg/injection, schedule: Q01DX001 (ip), vehicle: carboxymethylcellulose (CMC)) is reported as 333 % of control, the T/C (dose: 40.0 mg/kg/injection, schedule: Q01DX001 (ip), vehicle: carboxymethylcellulose (CMC)) is reported as 423 % of control and the T/C (dose: 60.0 mg/kg/injection, schedule: Q01DX001 (ip), vehicle: carboxymethylcellulose (CMC)) is reported as 422 % of control. For the same molecule, the T/C (dose: 90.0 mg/kg/injection, schedule: Q01DX001 (ip), vehicle: carboxymethylcellulose (CMC)) was 170 % of control.

For `CCc1nc(=O)c2ccccc2n1C`, the T/C (dose: 1.5 mg/kg/injection, schedule: Q01DX001 (ip), vehicle: saline) was 100 % of control, the T/C (dose: 3.0 mg/kg/injection, schedule: Q01DX001 (ip), vehicle: saline) was 95 % of control and the T/C (dose: 6.0 mg/kg/injection, schedule: Q01DX001 (ip), vehicle: saline) was 107 % of control.

For `CCCCC(CCCC)CCCC`, the T/C (dose: 100.0 mg/kg/injection, schedule: Q04DX002 (ip), vehicle: saline with Tween-80) was 97 % of control, the T/C (dose: 200.0 mg/kg/injection, schedule: Q04DX002 (ip), vehicle: saline with Tween-80) was 106 % of control and the T/C (dose: 400.0 mg/kg/injection, schedule: Q04DX002 (ip), vehicle: saline with Tween-80) was 103 % of control.

With `COc1ccc(Cl)cc1NC(=O)c1ccccc1C(=O)O` the T/C (dose: 100.0 mg/kg/injection, schedule: Q01DX009 (ip), vehicle: Klucel (hydroxypropylcellulose) (HPC)) was 98 % of control, the T/C [6] was 101 % of control and the T/C (dose: 200.0 mg/kg/injection, schedule: Q01DX009 (ip), vehicle: Klucel (hydroxypropylcellulose) (HPC)) was 102 % of control. The T/C (dose: 200.0 mg/kg/injection, schedule: Q04DX003 (ip), vehicle: Klucel (hydroxypropylcellulose) (HPC)) was 96 % of control, the T/C (dose: 400.0 mg/kg/injection, schedule: Q01DX009 (ip), vehicle: Klucel (hydroxypropylcellulose) (HPC)) was 94 % of control and the T/C (dose: 400.0 mg/kg/injection, schedule: Q04DX003 (ip), vehicle: Klucel (hydroxypropylcellulose) (HPC)) was 103 % of control.

In the case of `N#CC1c2ccccc2C=CN1C(=O)CCBr` (stereo not given), the T/C (dose: 100.0 mg/kg/injection, schedule: Q01DX009 (ip), vehicle: saline with Tween-80) is reported as 112 % of control, the T/C (dose: 200.0 mg/kg/injection, schedule: Q01DX009 (ip), vehicle: saline with Tween-80) is reported as 102 % of control and the T/C (dose: 400.0 mg/kg/injection, schedule: Q01DX009 (ip), vehicle: saline with Tween-80) is reported as 96 % of control.

In the case of `O=C(O)c1ccccc1CN1CCCC(C(=O)O)C1` (stereo not given), the T/C (dose: 6.25 mg/kg/injection, schedule: Q01DX009 (ip), vehicle: saline with Tween-80) is reported as 101 % of control, the T/C (dose: 12.5 mg/kg/injection, schedule: Q01DX009 (ip), vehicle: saline with Tween-80) is reported as 97 % of control and the T/C (dose: 25.0 mg/kg/injection, schedule: Q01DX009 (ip), vehicle: saline with Tween-80) is reported as 92 % of control.

In the case of `O=[N+]([O-])c1ccc(\C=C/C=C/C=C/C2(CCl)OCCO2)cc1`, the T/C (dose: 100.0 mg/kg/injection, schedule: Q01DX001 (ip), vehicle: saline with Tween-80) is reported as 91 % of control and the T/C (dose: 200.0 mg/kg/injection, schedule: Q01DX001 (ip), vehicle: saline with Tween-80) is reported as 87 % of control.

For `CCOC(=O)c1ccc(N(Cc2cccc([N+](=O)[O-])c2)S(=O)(=O)c2ccc(C)cc2)cc1`, the T/C (dose: 75.0 mg/kg/injection, schedule: Q01DX001 (ip), vehicle: saline with Tween-80) was 93 % of control and the T/C (dose: 150.0 mg/kg/injection, schedule: Q01DX001 (ip), vehicle: saline with Tween-80) was 87 % of control.

`COC(=O)/C=C(\C)C(C)=Nc1ccccc1` was tested, and the T/C (dose: 100.0 mg/kg/injection, schedule: Q04DX003 (ip), vehicle: saline with Tween-80) was 106 % of control and the T/C (dose: 200.0 mg/kg/injection, schedule: Q04DX003 (ip), vehicle: saline with Tween-80) was 106 % of control.

For `C[n+]1cc2cc(O)c(O)cc2c2ccc3cc(O)c(O)cc3c21`, the T/C (dose: 40.0 mg/kg/injection, schedule: Q01DX009 (ip), vehicle: saline) was 102 % of control, the T/C (dose: 80.0 mg/kg/injection, schedule: Q01DX009 (ip), vehicle: saline) was 107 % of control and the T/C (dose: 120.0 mg/kg/injection, schedule: Q01DX009 (ip), vehicle: saline) was 98 % of control. The T/C (dose: 240.0 mg/kg/injection, schedule: Q01DX009 (ip), vehicle: saline) was 98 % of control.

For `N#Cc1cncc(-c2ccccc2)c1`, the T/C (dose: 25.0 mg/kg/injection, schedule: Q04DX003 (ip), vehicle: Klucel (hydroxypropylcellulose) (HPC)) was 95 % of control, the T/C (dose: 50.0 mg/kg/injection, schedule: Q04DX003 (ip), vehicle: Klucel (hydroxypropylcellulose) (HPC)) was 95 % of control and the T/C [6] was 89 % of control.

With `CCCCCCCCCCCCCCCCCCOS(=O)(=O)c1ccc(C)cc1` the T/C (dose: 12.5 mg/kg/injection, schedule: Q01DX009 (ip), vehicle: Klucel (hydroxypropylcellulose) (HPC)) was 98 % of control, the T/C (dose: 25.0 mg/kg/injection, schedule: Q01DX009 (ip), vehicle: Klucel (hydroxypropylcellulose) (HPC)) was 95 % of control and the T/C (dose: 50.0 mg/kg/injection, schedule: Q01DX009 (ip), vehicle: Klucel (hydroxypropylcellulose) (HPC)) was 95 % of control.

With `CC(C)=CCC(CCN1CCCCC1)(C(N)=O)c1cccc2ccccc12` (stereo not given) the T/C (dose: 1.5 mg/kg/injection, schedule: Q01DX009 (ip), vehicle: Klucel (hydroxypropylcellulose) (HPC)) was 104 % of control, the T/C (dose: 3.12 mg/kg/injection, schedule: Q01DX009 (ip), vehicle: Klucel (hydroxypropylcellulose) (HPC)) was 104 % of control and the T/C (dose: 6.25 mg/kg/injection, schedule: Q01DX009 (ip), vehicle: Klucel (hydroxypropylcellulose) (HPC)) was 95 % of control. For the same molecule, the T/C (dose: 6.25 mg/kg/injection, schedule: Q04DX002 (ip), vehicle: Klucel (hydroxypropylcellulose) (HPC)) was 97 % of control, the T/C (dose: 12.5 mg/kg/injection, schedule: Q04DX002 (ip), vehicle: Klucel (hydroxypropylcellulose) (HPC)) was 97 % of control and the T/C (dose: 25.0 mg/kg/injection, schedule: Q04DX002 (ip), vehicle: Klucel (hydroxypropylcellulose) (HPC)) was 103 % of control.

In the case of `Nc1nc2nnc(CNc3ccc(C(=O)NC(CCC(=O)O)C(=O)O)cc3)nc2c(=O)[nH]1` (stereo not given), the T/C [1] is reported as 94 % of control and the T/C [2] is reported as 103 % of control.

In the case of `COc1ccc2c(c1)C1(C)CCCC(C)(C(N)=O)C1CC2` (stereo not given), the T/C [3] is reported as 101 % of control, the T/C [4] is reported as 93 % of control and the T/C [5] is reported as 98 % of control.

With `CN(C)C(=O)c1cc(C(=O)N(C)C)c[n+](Cc2c(Cl)cccc2Cl)c1` the T/C (dose: 18.75 mg/kg/injection, schedule: Q01DX009 (ip), vehicle: saline) was 95 % of control, the T/C (dose: 37.5 mg/kg/injection, schedule: Q01DX009 (ip), vehicle: saline) was 95 % of control and the T/C (dose: 75.0 mg/kg/injection, schedule: Q01DX001 (ip), vehicle: saline) was 97 % of control. For the same molecule, the T/C (dose: 75.0 mg/kg/injection, schedule: Q01DX009 (ip), vehicle: saline) was 94 % of control, the T/C (dose: 75.0 mg/kg/injection, schedule: Q04DX003 (ip), vehicle: saline) was 100 % of control and the T/C (dose: 150.0 mg/kg/injection, schedule: Q01DX001 (ip), vehicle: saline) was 106 % of control. For the same molecule, the T/C (dose: 150.0 mg/kg/injection, schedule: Q04DX003 (ip), vehicle: saline) was 96 % of control and the T/C (dose: 300.0 mg/kg/injection, schedule: Q01DX001 (ip), vehicle: saline) was 104 % of control.
